From patent publication US6566096B2, “Mammalian EDG-7 receptor homologs” (NPS Allelix Corp., priority 1997, dated 2003)
Several values for one entry are separate records, joined by “and”; a condition that tells them apart may be missing. Equal entries are not always repeated.

Molecular target: T1, HEDG-7 receptor (Homo sapiens, UniProt O95977, A140V/I378S)
T1 construct: it was desirable to isolate a full-length cDNA clone from a human source; expressed in transfected cells; host or cells: 293-EBNA cells (Invitrogen, Cat. R620-07), transiently transfected with pc3-hedg7#M10 (pcDNA3.1) and a 2x SRE-luciferase reporter
T1 sequence (O95977 1-384 A140V/I378S): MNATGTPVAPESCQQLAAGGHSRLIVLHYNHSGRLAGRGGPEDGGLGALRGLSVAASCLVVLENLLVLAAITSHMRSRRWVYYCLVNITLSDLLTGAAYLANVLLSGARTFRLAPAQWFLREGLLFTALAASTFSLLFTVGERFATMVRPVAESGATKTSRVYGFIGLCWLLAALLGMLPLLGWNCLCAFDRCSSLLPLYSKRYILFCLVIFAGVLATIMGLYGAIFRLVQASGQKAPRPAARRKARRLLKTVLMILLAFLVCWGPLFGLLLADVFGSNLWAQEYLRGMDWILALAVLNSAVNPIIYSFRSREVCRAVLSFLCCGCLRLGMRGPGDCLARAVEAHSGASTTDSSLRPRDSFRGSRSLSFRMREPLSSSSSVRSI
Experiment: SRE-luciferase reporter gene response in 293-EBNA cells transfected with pc3-hedg7#M10
Assay type: cell-based
Settings: for SRE response (agonist specificity): 5 μM compound, serum-free medium; for SRE response (agonist specificity) / Rank (EMax) / EMax (Percent) / HEDG7 activation (conclusion from dose response): 293-EBNA cells transfected with pc3-hedg7#M10; for Max. Fold: maximal luciferase fold response after subtracting endogenous response in pcDNA3-transfected cells; for Max. Fold / EMax (Percent) / HEDG7 activation (conclusion from dose response): 6 hr treatment; for Rank (EMax): rank of efficacy among sphingolipids tested; for EMax (Percent): relative efficacy; for HEDG-7 agonist activity: summary statement in the description; for HEDG7 activation (conclusion from dose response): various concentrations
Experimental: Miniprep DNA from 4 clones was tested by cotransfection into 293-EBNA cells (Invitrogen, Cat. R620-07) with a 2× SRE-Luciferase reporter gene constructed in-house. We previously determined that these cells are an ideal expression host for edg receptors that respond to sphingolipids, since only a single edg gene is expressed (the LPA receptor subtype […], see U.S. Ser. No. 08/997,803), under normal culture conditions. […] Thus, the low endogenous expression of previously identified S1P receptor subtypes (edg-1, edg-3, edg-4/H218) and hedg7 (determined here) permits overexpression and functional analysis of these receptors in a relatively unresponsive cell background. From this preliminary cotransfection experiment, the expression clone pC3-hEdg7#M10 was chosen for further analysis. The nucleotide sequence and amino acid sequence of the hedg-7 sequence from the pC3-hEdg7#M10 clone are shown in FIG. 1B and FIG. 2B, respectively. Furthermore, an alignment of the hedg-7 amino acid sequence from the pC3-hEdg7#M10 clone and from the genomic DNA sequence is shown in FIG. 3B.
Transient transfection protocol for 293-EBNA:
1) 100 mm plates of 293-EBNA with a confluency of −80% were used for transfection.
2) SRE Reporter Gene Cotransfection: Expression plasmid ([…]) and reporter plasmid (2× SREtk-p4Luc-zeo; 0.5 μg) DNA samples were combined and diluted in 750 μl of DMEM/F12 (serum-free media) and 20 μl Plus Reagent (Lipofectamine Plus Kit, Life Technologies Cat. 10964-013), and incubated at room temperature for 15 min.
3) 30 μl Lipofectamine Reagent (Lipofectamine Plus Kit) was diluted in 750 μl DMEM/F12. The diluted Lipofectamine was then combined with the DNA/Plus mixture and incubated at RT for 15 min.
4) The 293-EBNA plates were washed once with PBS, and 5 ml DMEM/F12 was added to each plate.
5) DNA/Plus/Lipofectamine mixture was added to each plate of 293-EBNA cells. The plates were left for 3 hr at 37° C. in a 5% CO2 incubator.
6) The transfection medium was replaced with DMEM/F12 containing 10% FBS to recover overnight.
2) Transfected cells were harvested by trypsinization and 20,000 cells per well were plated in 96-well Blackview plates coated with poly D-lysine (Becton Dickinson Labware, Cat. 40640). Medium was DMEM/F12 plus 0.15% FBS. No. cells were plated in the outside wells of the 96-well plate. Cells were returned to the incubator for 48 hr.
1) Media was removed and cells treated with compounds diluted in serum-free DMEM/F12 media and the following treatments: a) Untreated: Serum-free DMEM/F12; b) 10 μM S1P in DMEM/F12 medium.
2) The cells were treated 5 hr in the 37° C. incubator.
3) Luclite kit (Packard; Cat. 6016911) was used for luciferase assay. All reagents were brought to room temperature before use.
4) Media was removed from each well. 50 μl 0.5M HEPES pH 7.8, 1 mM MgCl2, 1 mM CaCl2 was added to all wells of 96-well plate.
5) Luclite substrate was made up and 50 μl substrate was added to each well as specified in the kit.
6) Plates were incubated at room temperature for 30 min.
7) After incubation, plates were counted in a 12-detector Packard Top Count on a program without dark delay.
To determine the agonist specificity of HEDG-7, 293-EBNA cells were transfected with pc3-hedg7#M10, serum-deprived as described above, and treated in serum-free medium with 5 μM concentrations of SPC, S1P, LPA, lysophosphatiylcholine (LPC), edelfosine, psychosine, anandamide or 2-arachidonylglycerol. Control cells were treated with serum-free medium alone, and the SRE response was expressed as fold induction relative to this control. After 5 hr of treatment, luciferase activity was measured.
Transfection of a HEDG7 expression vector pc3-hedg7#M10 was carried out using Lipofectamine Plus (Life Technologies, Cat. 10964-013) according to manufacturer's instructions. The next day, transfected cells were harvested by trypsinization and replated at 30,000 cells per well in poly-(D)lysine-coated 96-well plates in medium containing 0.15% FBS. […]

Row | SRE-Luciferase reporter response (10 μM S1P treatment, 5 hr, EBNA-293 cells transfected with pc3-hedg7#M10 and 2× SRE-Luciferase reporter, 2 independent experiments) | Max. Fold | EMax (Percent) | Compound | SRE response (agonist specificity) (5 hr) | Rank (EMax) | HEDG-7 agonist activity | HEDG7 activation (conclusion from dose response)
1 | – | – | – | lysophosphatidylcholine [LPC] | failed to activate the SRE response | – | – | –
2 | 5.3 fold and 6.5 fold | 3.59 Fold | 100% | CCCCCCCCCCCCC/C=C/[C@@H](O)[C@@H](N)COP(=O)(O)O [S1P] | robustly induced expression of the SRE reporter gene | 1 | agonists for HEDG-7 | full agonists
3 | – | – | – | CCCCC/C=C\C/C=C\C/C=C\C/C=C\CCCC(=O)NCCO [anadamide, anandamide] | – | – | do not act as HEDG-7 agonists | –
4 | – | 1.00 Fold | 0% | CCCCCCCCCCCCC/C=C/[C@@H](O)[C@@H](N)CO[C@@H]1O[C@H](CO)[C@H](O)[C@H](O)[C@H]1O [Psychosine, psychosine] | – | – | do not act as HEDG-7 agonists | failed to activate HEDG7 at nontoxic concentrations
5 | – | – | – | CCCCCCCCCCCCCCC[C@@H](O)[C@@H](N)COP(=O)(O)O [dihydro-S1P, dihydrosphingosine 1-phosphate] | – | – | do not act as HEDG-7 agonists | –
6 | – | 1.00 Fold | 0% | CCCCCCCCCCCCC/C=C/[C@@H](O)C(N)CO[C@@H]1O[C@H](CO)[C@@H](O)[C@H](O)[C@@H]1O (stereo partly drawn) [Glucospychosine, glucopsychosine] | – | – | do not act as HEDG-7 agonists | failed to activate HEDG7 at nontoxic concentrations

Row | Compound | SRE-Luciferase reporter response (10 μM S1P treatment, 5 hr, EBNA-293 cells transfected with pc3-hedg7#M10 and 2× SRE-Luciferase reporter, 2 independent experiments) | Max. Fold | EMax (Percent) | SRE response (agonist specificity) (5 hr) | Rank (EMax) | HEDG-7 agonist activity | HEDG7 activation (conclusion from dose response)
7 | CCCCCCCCCCCCC/C=C/[C@@H](O)[C@@H](N)COP(=O)([O-])OCC[N+](C)(C)C [SPC] | – | 3.59 Fold | 100% | robustly induced expression of the SRE reporter gene | 1 | agonists for HEDG-7 | full agonists
